The text below walks through data of ChEMBL document CHEMBL1201862, “PubChem BioAssay data set” (2004).

The target of experiment [1] is Voltage-gated inwardly rectifying potassium channel KCNH2 (Homo sapiens, UniProt Q12809). The experiment is described as follows: hERG protection from proarrhythmic block, potency, dose response, cell-based, thallium flux (AID 2121). The class given is ADME. Background: The hERG channel carries a current that helps repolarise heart muscle cells.
For experiment [2], the target named is Photoreceptor-specific nuclear receptor (Homo sapiens, UniProt Q9Y5X4). It is filed as functional, cell-based.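 Further: CHO-S cells with Gal4-NCOR and VP16-NR2E3 two-hybrid luciferase reporter.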
The nature of experiment [3]: inhibitors of SNCA 5'UTR-driven reporter translation, confirmation, H4 neuroglioma cells, luminescence (AID 1988). The class given is functional, cell-based.
A short description of experiment [4]: Luminescence Cell-Based Dose Response HTS to Identify Inhibitors of 5'UTR Stem-Loop Driven Prion Protein mRNA Translation in H4 Neuroglioblastoma Cells. [Related pubchem assays: 1827 (Project Summary), 1813 (Primary HTS)]. The class given is functional.
The target in experiment [5] is T1, High affinity choline transporter 1 (Homo sapiens, UniProt Q9GZV3).
T1 sequence (Q9GZV3 whole entry): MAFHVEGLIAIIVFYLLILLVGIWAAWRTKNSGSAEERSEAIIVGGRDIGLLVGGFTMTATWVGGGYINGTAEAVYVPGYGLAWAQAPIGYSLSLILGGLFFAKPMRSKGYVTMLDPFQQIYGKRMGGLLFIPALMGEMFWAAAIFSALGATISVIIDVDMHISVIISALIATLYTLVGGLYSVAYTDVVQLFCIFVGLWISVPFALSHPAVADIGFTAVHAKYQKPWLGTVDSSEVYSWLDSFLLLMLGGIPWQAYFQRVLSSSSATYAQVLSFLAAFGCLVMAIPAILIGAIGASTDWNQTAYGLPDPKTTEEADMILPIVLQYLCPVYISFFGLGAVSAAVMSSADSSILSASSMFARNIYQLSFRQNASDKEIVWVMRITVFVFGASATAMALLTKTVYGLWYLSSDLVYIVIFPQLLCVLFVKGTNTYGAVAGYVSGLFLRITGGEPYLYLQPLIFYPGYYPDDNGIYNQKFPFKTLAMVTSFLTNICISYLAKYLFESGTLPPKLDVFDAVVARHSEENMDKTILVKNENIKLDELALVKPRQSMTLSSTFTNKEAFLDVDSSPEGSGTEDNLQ
Description: CHT inhibitors, dose response, cell-based, 5-point CRC, membrane potential dye (AID 504840). The class given is functional.

Experiment [6] concerns BJ. Description: cells. The following applies: Homo sapiens, BJ. It is filed as functional, cell-based, Homo sapiens.
A further experiment concerns the target Paired box protein Pax-8 (Homo sapiens, UniProt Q06710). The experiment is described as follows: inhibitors of PAX8-driven TPO luciferase reporter, dose response, RMG-I cells, cherry-pick (AID 687027).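 Further: luciferase reporter driven by Pax8 target thyroperoxidase promoter measured by SteadyGlo luminescence.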 It is filed as functional, cell-based.
Experiment [7] is described as follows: cells.
Experiment [8] has as its system BJ. The experiment is described as follows: cytotoxicity toward BJ-TERT-LT-ST fibroblasts, dose response, cell-based, RAS-independent, luminescence (AID 1935).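 Further: BJ fibroblasts immortalized with TERT plus LT and ST oncogenes.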 To be noted: Homo sapiens, BJ. It is filed as functional, Homo sapiens.
A short description of experiment [9]: inhibitors of firefly luciferase expression or activity, dose response, H4 neuroglioma cells, luminescence (AID 1990). The class given is functional, cell-based.
The nature of experiment [10]: Luminescence-based dose response cell-based high throughput screening assay for cytotoxic compounds using the IEC-6 intestinal epithelial cell line. [Related pubchem assays: 1858 (Summary AID.), 1825 (Counterscreen.), 1907 (Confirmation screen.)]. The class given is functional.
The nature of experiment [11]: cytotoxicity in HEK-293T cells, dose response, cytotoxicity control for BCR NF-kB inhibitor project, luminescence, B-cell screen hits (AID 489021).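 Further: HEK-293T cells carrying an NF-kB luciferase reporter; cells exposed to compound for about 14 hours before viability readout.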 The class given is functional, cell-based.
Experiment [12] deals with T1, High affinity choline transporter 1. Description: CHT inhibitors, dose response, cell-based, 10-point CRC, membrane potential dye (AID 588401).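 Further: membrane potential dye fluorescence of choline-evoked depolarization via CHT.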 It is filed as functional.
Experiment [13] in a line: inhibitors of SNCA 5'UTR-driven translation, confirmation, luminescence, H4 neuroglioblastoma cells, dose confirmation (AID 2454).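 Further: H4 neuroglioblastoma cells carrying an alpha-synuclein 5'UTR luciferase reporter; potency for inhibition of the luciferase signal.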 The class given is functional, cell-based.
For the next experiment, the target named is Major prion protein (Homo sapiens, UniProt P04156). It is filed as functional, cell-based.
The next experiment deals with INS1. Description: beta cell apoptosis inhibitors, cytokine rescue, dose response, luminescence, retest (AID 449756).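 Further: cell death triggered by IL-1 beta plus TNF-alpha plus IFN-gamma mixture; protective hits raise ATP signal compared with cytokine alone wells.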 The class given is functional, cell-based. The following applies: Rattus norvegicus.
Experiment [14] is described as follows: cells. The class given is functional, cell-based.
In the next experiment the target is Galanin receptor type 2 (Homo sapiens, UniProt O43603). The experiment is described as follows: Dose Response cell-based high-throughput screening assay to identify antagonists of galanin receptor 2 (GALR2). [Related pubchem assays: 828, 866 ]. It is filed as functional.
Experiment [15] can be described thus: luciferase reporter signal reduction – luminescence, H4-C neuroglioblastoma cells, dose response (AID 2458).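 Further: H4 neuroglioblastoma cells stably carrying a luciferase reporter gene fusion.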 The class given is functional, cell-based. In general terms: A reporter such as luciferase makes a cellular process visible.
Experiment [16] has as its target Aryl hydrocarbon receptor (Homo sapiens, UniProt P35869). The experiment is described as follows: Luminescence-based cell-based high throughput dose response assay for activators of the Aryl Hydrocarbon Receptor (AHR). [Related pubchem assays: 2796 (Primary screen (AHR activators in singlicate)), 2845 (Confirmation screen (AHR activators in triplicate)), 434939 (Counterscreen (PXR activators in triplicate)), 2804 (Summary (AHR activators))]. It is filed as ADME. Background: The purpose of a counterscreen is to sort out artefacts and off-target activity.

Structures are written as SMILES. Active and inactive are the calls of the source.

Regarding `COc1ccc(C(=O)CC(=O)C(=O)Nc2ccc(Cl)cc2)cc1`, the half-maximal effective concentration (EC50) (as a rule, the concentration giving half of the maximal effect) in experiment [1] is 1740 nM (active).
With `CC1CCC/C=C/C2CC(O)CC2C(O)/C=C/C(=O)O1` (stereo not given), the IC50 (in general, the concentration at which inhibition is half-maximal) in experiment [2] was 714 nM (active); in experiment [5], 1870 nM (active); in “cells [7]” it was > 138000 nM (inactive); in experiment [10] it was 353 nM (active); in experiment [11] it was > 80000 nM (inactive); in [12], 3030 nM (active). The IC50 on Major prion protein was 3430 nM (active); on Galanin receptor type 2, > 42000 nM (not active). For the same compound, the concentration giving a half-maximal response (EC50) was < 100 nM (active) in experiment [3]; < 100 nM (active) in experiment [4]; > 150000 nM (inconclusive) with BJ [6]; < 120 nM (active) in the experiment with BJ [8]; < 100 nM (active) in [9]; 71 nM (active) in [13]. The concentration for a half-maximal effect (EC50) (in “cells [14]”; in experiment [15]) was 78 nM (active) throughout. Also, the half-maximal activity concentration (AC50) (as a rule, the concentration at which the activity in the assay is half-maximal) at Paired box protein Pax-8 was < 260 nM (active); with INS1 it was 740 nM (active).
With `Cc1nccc(-c2ccc(-n3cnc4ccccc43)cc2)n1`, the EC50 in experiment [16] is > 1130 nM (active).
